From US6974870B2, “Substituted 3-amino-thieno [2,3-b]pyridine-2-carboxylic acid amide compounds and processes for preparing and their uses” (Boehringer Ingelheim Phamaceuticals, Inc., priority 2002, dated 2005)

Target: T1, human IKKα (Homo sapiens, UniProt O15111)
T1 construct: FLAG (N)
T1 sequence (O15111 1-745): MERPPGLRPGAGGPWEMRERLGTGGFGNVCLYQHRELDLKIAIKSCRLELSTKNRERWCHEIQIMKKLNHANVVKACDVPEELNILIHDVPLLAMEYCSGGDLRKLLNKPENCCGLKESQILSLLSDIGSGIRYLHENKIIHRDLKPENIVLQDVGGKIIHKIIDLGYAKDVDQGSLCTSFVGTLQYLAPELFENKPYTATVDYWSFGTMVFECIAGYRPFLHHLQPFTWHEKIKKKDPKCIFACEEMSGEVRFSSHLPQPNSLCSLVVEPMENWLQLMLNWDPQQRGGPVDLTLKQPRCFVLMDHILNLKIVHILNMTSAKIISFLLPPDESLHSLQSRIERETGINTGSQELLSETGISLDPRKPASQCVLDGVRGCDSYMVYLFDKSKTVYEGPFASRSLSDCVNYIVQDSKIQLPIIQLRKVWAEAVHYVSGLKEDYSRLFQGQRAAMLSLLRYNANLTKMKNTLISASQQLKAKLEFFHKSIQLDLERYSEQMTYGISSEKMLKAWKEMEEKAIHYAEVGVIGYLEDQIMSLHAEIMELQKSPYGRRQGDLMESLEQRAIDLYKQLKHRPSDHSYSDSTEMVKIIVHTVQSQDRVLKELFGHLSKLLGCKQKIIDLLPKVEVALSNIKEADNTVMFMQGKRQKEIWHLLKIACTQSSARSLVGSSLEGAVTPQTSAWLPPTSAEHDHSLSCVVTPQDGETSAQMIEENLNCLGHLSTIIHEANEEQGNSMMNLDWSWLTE
Assay: IKKα kinase inhibition assay (phosphorylation of IκBα substrate, 33P-ATP)
Type: biochemical
Details: flag-tagged human IKKα 3.6 μg/ml, GST-IκBα (1-54) 245 μg/ml, 250 nM ATP, 1 hour at 25° C.
Procedure: (§1) The inhibition of IKKα and IKKβ by the compounds of the present invention was determined with the following assay that measures the phosphorylation of the IκBα substrate by the respective kinases. The enzymes used in the assay were N-terminally flag-tagged versions of the human IKKβ or IKKα and the substrate was a GST fusion protein with IκBα (amino acids 1-54).
(§2) The reaction mixtures (60 μl) contained 20 mM HEPES pH 7.5, 10 mM MgCl2, 2 mM MnCl2, 100 mM NaCl, 100 μM Na3VO4, 20 mM β-glycerophosphate, 1 mM DTT, 2% DMSO, 250 nM ATP, 0.4 nM [^33P]ATP (specific activity, 3000 Ci/mmol), IκBα substrate, IKK enzyme and test compound. The reaction mixtures contained either 3.6 μg/ml IKKα and 245 μg/ml IκBα or 0.9 μg/ml IKKβ and 53 μg/ml IκBα.
(§3) Reactions were initiated by adding a solution of IκBα substrate and ATP to polypropylene plates containing IKK enzyme that was pre-incubated for 5 minutes with test compound. Then the reaction mixtures were incubated for 1 hour at 25° C., placed on ice and quenched by the addition of 150 μl 10% trichloroacetic acid and 5% disodium pyrophosphate. After mixing, the entire contents of the quenched reaction mixtures were transferred to a pre-wetted Packard UniFilter filtration plate, aspirated and washed 6 times with 250 μl of ddH2O using the Packard Filtermate Harvester. Filtration plates were then air dried, supplemented with 40 μl of Microscint 20 scintillation fluid and the ^33P-labeled reaction products were quantified using the Packard TopCount scintillation counter.
(§4) Compounds were tested in three-fold serial dilutions and inhibitor concentrations to achieve 50% inhibition of enzyme activity (i.e., IC50) were derived from dose-reponse curves using SAS software (SAS Institute, Cary N.C.). A non-linear regression analysis based on the Hill equation was applied to the percent inhibition versus concentration data. In all cases, compound concentrations were verified by HPLC.

Row | SMILES | IC50 [µM]
1 | Cc1cc(/C=C/c2ccc(F)cc2)c2c(N)c(C(N)=O)sc2n1 [3-Amino-4-[(E)-2-(4-fluoro-phenyl)-vinyl]-6-methyl-thieno[2,3-b]pyridine-2-carboxylic acid amide] | ≤ 10
2 | Cc1cc(-c2ccc(S(C)(=O)=O)cc2)c2c(N)c(C(N)=O)sc2n1 [3-Amino-4-(4-methanesulfonyl-phenyl)-6-methyl-thieno[2,3-b]pyridine-2-carboxylic acid amide] | ≤ 10
3 | CCCc1cc(N2CC[C@@H](N)C2)nc2sc(C(N)=O)c(N)c12 [3-Amino-6-((R)-3-amino-pyrrolidin-1-yl)-4-propyl-thieno[2,3-b] pyridine-2-carboxylic acid amide] | ≤ 10
4 | Cc1cc(/C=C/c2ccc(Cl)cc2)c2c(N)c(C(N)=O)sc2n1 [3-Amino-4-[(E)-2-(4-chloro-phenyl)-vinyl]-6-methyl-thieno[2,3-b]pyridine-2-carboxylic acid amide] | ≤ 10
5 | CCCc1cc(N2CCC(N)(C#N)CC2)nc2sc(C(N)=O)c(N)c12 [3-Amino-6-(4-amino-4-cyano-piperidin-1-yl)-4-propyl-thieno[2,3-b] pyridine-2-carboxylic acid amide] | ≤ 10
6 | NC(=O)c1sc2nc(N3CCC(N)CC3)cc(C(=O)NCCCN3CCOCC3)c2c1N [33-Amino-6-(4-amino-piperidin-1-yl)-thieno[2,3-b]pyridine-2,4-dicarboxylic acid 2-amide 4-[(3-morpholin-4-yl-propyl)-amide]] | ≤ 10
7 | NC(=O)c1sc2nc(N3CCC(N)CC3)cc(/C=C/c3ccccc3)c2c1N [3-Amino-6-(4-amino-piperidin-1-yl)-4-((E)-styryl)-thieno[2,3-b]pyridine-2-carboxylic acid amide] | ≤ 10
8 | Cc1cc(/C=C/c2ccccc2)c2c(N)c(C(N)=O)sc2n1 [3-Amino-6-methyl-4-((E)-styryl)-thieno[2,3-b]pyridine-2-carboxylic acid amide] | ≤ 10
9 | Cc1cc(-c2ccco2)c2c(N)c(C(N)=O)sc2n1 [3-Amino-4-furan-2-yl-6-methyl-thieno[2,3-b]pyridine-2-carboxylic acid amide] | ≤ 10

Next, values leading:

Row | IC50 [µM] | SMILES
10 | ≤ 10 | CCCc1cc(N2CCC(NCC(O)c3ccc(NS(C)(=O)=O)cc3)CC2)nc2sc(C(N)=O)c(N)c12 (centres unmarked) [3-Amino-6-{4-[2-hydroxy-2-(4-methanesulfonylamino-phenyl)-ethylamino]-piperidin-1-yl}-4-propyl-thieno[2,3-b] pyridine-2-carboxylic acid amide]
11 | ≤ 10 | CCCc1cc(N2CCC(NCC(O)c3ccc(C(=O)NCc4cccnc4)cc3)CC2)nc2sc(C(N)=O)c(N)c12 (centres unmarked) [3-Amino-6-[4-(2-hydroxy-2-{4-[(pyridin-3-ylmethyl)-carbamoyl]-phenyl}-ethylamino)-piperidin-1-yl]-4-propyl-thieno[2,3-b] pyridine-2-carboxylic acid amide]
12 | ≤ 10 | CCCc1cc(N2CCC(N)CC2)nc2sc(C(N)=O)c(N)c12 [3-Amino-6-(4-amino-piperidin-1-yl)-4-propyl-thieno[2,3-b] pyridine-2-carboxylic acid amide]

Target: T2, human IKKβ (Homo sapiens, UniProt O14920)
T2 construct: FLAG (N)
T2 sequence (O14920 1-756): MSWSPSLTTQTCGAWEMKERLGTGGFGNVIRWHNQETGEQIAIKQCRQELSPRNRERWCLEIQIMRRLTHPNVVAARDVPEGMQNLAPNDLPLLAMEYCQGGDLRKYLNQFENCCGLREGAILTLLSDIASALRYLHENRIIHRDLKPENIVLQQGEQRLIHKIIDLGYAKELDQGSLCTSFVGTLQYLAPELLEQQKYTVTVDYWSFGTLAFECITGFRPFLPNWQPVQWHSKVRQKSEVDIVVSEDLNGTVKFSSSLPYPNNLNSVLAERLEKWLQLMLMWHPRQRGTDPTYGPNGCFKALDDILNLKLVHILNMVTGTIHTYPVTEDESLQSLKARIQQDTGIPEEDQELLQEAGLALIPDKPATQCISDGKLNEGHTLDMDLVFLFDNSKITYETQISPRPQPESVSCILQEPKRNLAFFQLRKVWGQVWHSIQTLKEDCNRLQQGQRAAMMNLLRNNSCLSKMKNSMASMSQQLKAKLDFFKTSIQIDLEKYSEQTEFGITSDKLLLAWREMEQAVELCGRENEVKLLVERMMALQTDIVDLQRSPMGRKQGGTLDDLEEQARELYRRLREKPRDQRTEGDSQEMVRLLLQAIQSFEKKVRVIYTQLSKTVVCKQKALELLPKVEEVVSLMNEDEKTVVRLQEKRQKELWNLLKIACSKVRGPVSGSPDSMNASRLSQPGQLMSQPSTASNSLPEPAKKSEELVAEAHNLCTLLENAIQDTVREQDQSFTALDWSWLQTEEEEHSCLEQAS
Assay: IKKβ kinase inhibition assay (phosphorylation of IκBα substrate, 33P-ATP)
Type: biochemical
Details: flag-tagged human IKKβ 0.9 μg/ml, GST-IκBα (1-54) 53 μg/ml, 250 nM ATP, 1 hour at 25° C.
Procedure: as §1, §2, §3, §4

Row | IC50 [µM] | SMILES
13 | < 1 | CCCc1cc(N2CCC(NC[C@H](O)COc3ccccc3)CC2)nc2sc(C(N)=O)c(N)c12 [3-Amino-6-[4-((S)-2-hydroxy-3-phenoxy-propylamino)-piperidin-1-yl]-4-propyl-thieno[2,3-b] pyridine-2-carboxylic acid amide]
14 | < 1 | CCCc1cc(N2CCC(NCC(O)COCc3ccccc3)CC2)nc2sc(C(N)=O)c(N)c12 (centres unmarked) [3-Amino-6-[4-(3-benzyloxy-2-hydroxy-propylamino)-piperidin-1-yl]-4-propyl-thieno[2,3-b] pyridine-2-carboxylic acid amide]
15 | < 1 | CCCc1cc(N2CCC(NCC(=O)NCC(N)=O)CC2)nc2sc(C(N)=O)c(N)c12 [3-Amino-6-(4-{[(carbamoylmethyl-carbamoyl)-methyl]-amino}-piperidin-1-yl)-4-propyl-thieno[2,3-b] pyridine-2-carboxylic acid amide]
16 | < 1 | CCCc1cc(N2CCC(NCC(=O)NCCO)CC2)nc2sc(C(N)=O)c(N)c12 [3-Amino-6-(4-{[(2-hydroxy-ethylcarbamoyl)-methyl]-amino}-piperidin-1-yl)-4-propyl-thieno[2,3-b] pyridine-2-carboxylic acid amide]
17 | < 1 | CCCc1cc(N2CCC(NCC(O)C(=O)Nc3ccccc3)CC2)nc2sc(C(N)=O)c(N)c12 (centres unmarked) [3-Amino-6-[4-(2-hydroxy-2-phenylcarbamoyl-ethylamino)-piperidin-1-yl]-4-propyl-thieno[2,3-b] pyridine-2-carboxylic acid amide]
18 | < 1 | CCCc1cc(N2CCC(NCC(=O)Nc3cccc(C(N)=O)c3)CC2)nc2sc(C(N)=O)c(N)c12 [3-Amino-6-(4-{[(3-carbamoyl-phenylcarbamoyl)-methyl]-amino}-piperidin-1-yl)-4-propyl-thieno[2,3-b] pyridine-2-carboxylic acid amide]
19 | < 1 | CCCc1cc(N2CCC(NCC(O)c3ccc(-c4cnccn4)cc3)CC2)nc2sc(C(N)=O)c(N)c12 (centres unmarked) [3-Amino-6-{4-[2-hydroxy-2-(4-pyrazin-2-yl-phenyl)-ethylamino]-piperidin-1-yl}-4-propyl-thieno[2,3-b] pyridine-2-carboxylic acid amide]
20 | < 1 | CC(C)(C)c1cc(N2CCC(N)CC2)nc2sc(C(N)=O)c(N)c12 [3-Amino-6-(4-amino-piperidin-1-yl)-4-tert-butyl-thieno[2,3-b] pyridine-2-carboxylic acid amide]
21 | < 1 | NC(=O)c1sc2nc(N3CCC(NCC(O)c4ccc(-c5ccncc5)cc4)CC3)cc(C(F)(F)F)c2c1N (centres unmarked) [3-Amino-6-{4-[2-hydroxy-2-(4-pyridin-4-yl-phenyl)-ethylamino]-piperidin-1-yl}-4-trifluoromethyl-thieno[2,3-b]pyridine-2-carboxylic acid amide]
22 | < 1 | CCCc1cc(N2CCC(NCC(O)COc3cccc(C#N)c3)CC2)nc2sc(C(N)=O)c(N)c12 (centres unmarked) [3-Amino-6-{4-[3-(3-cyano-phenoxy)-2-hydroxy-propylamino]-piperidin-1-yl}-4-propyl-thieno[2,3-b] pyridine-2-carboxylic acid amide]
23 | < 1 | CCCc1cc(N2CCC(NCC(O)COc3ccc4ccccc4c3)CC2)nc2sc(C(N)=O)c(N)c12 (centres unmarked) [3-Amino-6-{4-[2-hydroxy-3-(naphthalen-2-yloxy)-propylamino]-piperidin-1-yl}-4-propyl-thieno[2,3-b] pyridine-2-carboxylic acid amide]
